Assay results published in ChEMBL document CHEMBL1154508, “Discovery of GSK345931A: An EP(1) receptor antagonist with efficacy in preclinical models of inflammatory pain” (Bioorg Med Chem Lett, 2009).

Key:
[1] = biological target: T1, Prostaglandin E2 receptor EP1 subtype (Homo sapiens, UniProt P34995); assay: Binding affinity to EP1 receptor
T1 sequence (P34995 whole entry): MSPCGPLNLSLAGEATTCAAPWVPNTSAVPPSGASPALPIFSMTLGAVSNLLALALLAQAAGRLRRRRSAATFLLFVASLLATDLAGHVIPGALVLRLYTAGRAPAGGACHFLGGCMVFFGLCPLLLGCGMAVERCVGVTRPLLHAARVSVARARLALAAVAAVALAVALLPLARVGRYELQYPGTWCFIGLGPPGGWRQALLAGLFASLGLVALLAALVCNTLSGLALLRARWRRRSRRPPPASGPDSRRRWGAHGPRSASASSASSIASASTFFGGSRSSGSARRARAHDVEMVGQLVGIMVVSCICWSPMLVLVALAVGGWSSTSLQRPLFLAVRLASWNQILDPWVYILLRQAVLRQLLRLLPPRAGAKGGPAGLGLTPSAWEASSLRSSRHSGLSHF

Cytochrome P450 2C9 = Cytochrome P450 2C9 (Homo sapiens, UniProt P11712); assay: Inhibition of CYP2C9; type: ADME
Cytochrome P450 3A4 = Cytochrome P450 3A4 (Homo sapiens, UniProt P08684); assay: Inhibition of CYP3A4; type: ADME
Cytochrome P450 2D6 = Cytochrome P450 2D6 (Homo sapiens, UniProt P10635); assay: Inhibition of CYP2D6; type: ADME
Cytochrome P450 1A2 = biological target: T2, Cytochrome P450 1A2 (Homo sapiens, UniProt P05177); assay: Inhibition of CYP1A2; type: ADME
T2 sequence (P05177 whole entry): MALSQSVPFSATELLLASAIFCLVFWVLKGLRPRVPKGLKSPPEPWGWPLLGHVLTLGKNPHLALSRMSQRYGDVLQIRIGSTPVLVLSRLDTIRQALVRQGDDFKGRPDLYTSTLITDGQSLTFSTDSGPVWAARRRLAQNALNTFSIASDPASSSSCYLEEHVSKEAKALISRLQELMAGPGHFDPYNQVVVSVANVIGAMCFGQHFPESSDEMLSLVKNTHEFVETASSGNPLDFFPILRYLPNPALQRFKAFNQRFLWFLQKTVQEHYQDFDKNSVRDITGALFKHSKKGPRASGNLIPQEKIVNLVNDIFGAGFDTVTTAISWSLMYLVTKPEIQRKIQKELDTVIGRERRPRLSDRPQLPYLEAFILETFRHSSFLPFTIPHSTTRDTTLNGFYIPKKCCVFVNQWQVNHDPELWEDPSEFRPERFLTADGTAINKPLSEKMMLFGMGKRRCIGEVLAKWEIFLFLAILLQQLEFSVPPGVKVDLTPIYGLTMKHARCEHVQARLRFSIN

[2] = Ratio of drug level in rat brain to blood at 0.28 mg/kg/hr, iv for 18 hrs at steady state; type: ADME, organism-based; parameters: route intravenous
Cytochrome P450 2C19 = Cytochrome P450 2C19 (Homo sapiens, UniProt P33261); assay: Inhibition of CYP2C19; type: ADME
Liver microsomes [3] = assay: Metabolic stability assessed as intrinsic clearance per gram of human liver microsomes; type: ADME, Microsome
[4] = biological target: T1, Prostaglandin E2 receptor EP1 subtype; assay: Antagonist activity at EP1 receptor assessed as calcium mobilization by FLIPR assay; type: functional
Liver microsomes [5] = assay: Metabolic stability assessed as intrinsic clearance per gram of rat liver microsomes; type: ADME, Microsome

Chain of Cytochrome P450 2C19 (P33261 whole entry): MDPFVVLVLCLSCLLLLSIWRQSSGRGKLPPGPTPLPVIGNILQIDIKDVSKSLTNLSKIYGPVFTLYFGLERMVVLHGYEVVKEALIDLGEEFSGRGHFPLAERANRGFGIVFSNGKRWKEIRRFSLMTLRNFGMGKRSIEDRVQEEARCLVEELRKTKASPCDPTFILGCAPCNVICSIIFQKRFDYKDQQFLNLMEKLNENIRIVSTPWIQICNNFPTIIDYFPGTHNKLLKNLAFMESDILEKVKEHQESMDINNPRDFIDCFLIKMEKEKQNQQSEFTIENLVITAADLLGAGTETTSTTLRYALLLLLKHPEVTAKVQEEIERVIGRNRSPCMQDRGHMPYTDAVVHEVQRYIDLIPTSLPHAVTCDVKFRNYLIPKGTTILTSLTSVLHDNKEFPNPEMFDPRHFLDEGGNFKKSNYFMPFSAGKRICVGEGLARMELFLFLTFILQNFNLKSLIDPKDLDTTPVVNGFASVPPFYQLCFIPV
Chain of Cytochrome P450 2C9 (P11712 whole entry): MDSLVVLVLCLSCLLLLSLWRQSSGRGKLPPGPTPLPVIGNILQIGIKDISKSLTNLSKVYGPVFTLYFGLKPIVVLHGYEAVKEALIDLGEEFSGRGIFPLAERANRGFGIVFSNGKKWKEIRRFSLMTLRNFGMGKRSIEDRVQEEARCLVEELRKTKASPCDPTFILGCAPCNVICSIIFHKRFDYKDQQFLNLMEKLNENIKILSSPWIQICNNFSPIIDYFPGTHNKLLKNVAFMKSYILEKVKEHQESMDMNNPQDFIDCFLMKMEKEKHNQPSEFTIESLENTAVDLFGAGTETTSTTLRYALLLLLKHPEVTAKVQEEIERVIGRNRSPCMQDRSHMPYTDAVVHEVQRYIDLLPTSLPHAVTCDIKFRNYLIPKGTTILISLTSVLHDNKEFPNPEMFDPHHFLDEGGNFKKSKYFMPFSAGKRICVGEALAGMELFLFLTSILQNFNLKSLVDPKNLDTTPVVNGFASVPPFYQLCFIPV
Chain of Cytochrome P450 2D6 (P10635 whole entry): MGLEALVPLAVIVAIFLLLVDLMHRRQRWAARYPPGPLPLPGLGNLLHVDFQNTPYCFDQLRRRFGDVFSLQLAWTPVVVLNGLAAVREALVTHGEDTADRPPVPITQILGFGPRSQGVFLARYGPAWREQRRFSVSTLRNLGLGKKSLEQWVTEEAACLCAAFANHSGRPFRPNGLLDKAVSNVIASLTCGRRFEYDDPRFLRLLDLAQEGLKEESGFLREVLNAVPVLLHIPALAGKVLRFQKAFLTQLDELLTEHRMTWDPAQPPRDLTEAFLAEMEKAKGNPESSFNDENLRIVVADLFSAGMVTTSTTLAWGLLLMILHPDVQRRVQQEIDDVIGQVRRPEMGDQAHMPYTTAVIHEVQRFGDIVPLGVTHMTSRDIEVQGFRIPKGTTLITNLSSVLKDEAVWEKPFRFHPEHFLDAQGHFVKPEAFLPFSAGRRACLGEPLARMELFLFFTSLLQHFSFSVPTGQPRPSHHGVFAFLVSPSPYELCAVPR
Chain of Cytochrome P450 3A4 (P08684 whole entry): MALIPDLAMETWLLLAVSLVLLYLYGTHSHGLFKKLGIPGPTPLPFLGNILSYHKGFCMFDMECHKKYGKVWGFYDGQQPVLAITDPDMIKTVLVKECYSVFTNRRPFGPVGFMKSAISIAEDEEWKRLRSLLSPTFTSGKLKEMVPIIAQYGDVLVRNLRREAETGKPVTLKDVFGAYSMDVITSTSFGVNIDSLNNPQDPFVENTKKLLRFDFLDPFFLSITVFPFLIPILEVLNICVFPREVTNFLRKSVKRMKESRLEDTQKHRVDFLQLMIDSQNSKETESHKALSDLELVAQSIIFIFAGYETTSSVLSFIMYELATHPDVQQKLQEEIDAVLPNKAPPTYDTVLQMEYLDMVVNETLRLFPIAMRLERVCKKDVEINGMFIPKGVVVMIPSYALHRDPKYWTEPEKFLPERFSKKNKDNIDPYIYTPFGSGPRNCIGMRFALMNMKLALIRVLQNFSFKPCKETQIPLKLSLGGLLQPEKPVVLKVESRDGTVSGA

Row | SMILES | IC50 [1] [nM] | other results
1 | O=C(O)c1cccc(-c2ccccc2-c2cc(Cl)ccc2OCc2ccc(F)cc2Cl)n1 | 63.1 | –
2 | CCCOc1ccc(Cl)cc1-c1ccccc1-c1cccc(C(=O)O)n1 | 251 | –
3 | O=C(O)c1cccc(-c2ccccc2-c2cc(Cl)ccc2OCc2ccccc2F)n1 | 39.8 | –
4 | Cc1cccc(-c2cc(Cl)ccc2OCc2ccccc2)c1-c1cccc(C(=O)O)c1 | 100 | –
5 | O=C(O)c1cc(-c2ccccc2-c2ccccc2OCc2ccccc2)ccc1Cl | 126 | –
6 | O=C(O)c1ccccc1-c1ccccc1-c1cc(Cl)ccc1OCc1ccccc1 | 20 | –
7 | O=C(O)c1cccc(-c2ccccc2-c2cc(Cl)ccc2OCc2ccc(Cl)cc2F)n1 | 20 | –
8 | O=C(O)c1ccc(-c2ccccc2-c2cc(Cl)ccc2OCc2ccccc2)cc1 | 794 | –
9 | O=C(O)c1cccc(-c2ccccc2-c2ccc(Cl)cc2OCc2ccccc2)c1 | 316 | –
10 | O=C(O)c1cccc(-c2cc(Cl)ccc2-c2cc(Cl)ccc2OCc2ccccc2)c1 | > 1000 | –
11 | CCCCOc1ccc(Cl)cc1-c1ccccc1-c1cccc(C(=O)O)n1 | 100 | –
12 | O=C(O)c1cccc(-c2ccccc2-c2ccccc2OCc2ccccc2)c1 | 20 | –
13 | O=C(O)c1cc(F)cc(-c2ccccc2-c2ccccc2OCc2ccccc2)c1 | 63.1 | –
14 | Cc1ccc(-c2cccc(C(=O)O)c2)c(-c2cc(Cl)ccc2OCc2ccccc2)c1 | > 1000 | –
15 | O=C(O)c1cccc(-c2ccccc2-c2cc(Cl)ccc2OCC2CCCC2)n1 | 158 | –
16 | Cc1ccc(-c2cc(Cl)ccc2OCc2ccccc2)c(-c2cccc(C(=O)O)c2)c1 | > 1000 | –
17 | O=C(O)c1ccc(F)c(-c2ccccc2-c2ccccc2OCc2ccccc2)c1 | 79.4 | –
18 | O=C(O)c1cccc(-c2ccccc2-c2cc(Cl)ccc2OCc2ccc(Br)cc2F)n1 | 50.1 | –
19 | O=C(O)c1cccc(C2=C(c3cc(Cl)ccc3OCc3ccc(F)cc3F)CCC2)n1 | – | IC50 (Cytochrome P450 2C9): 25000 nM; IC50 (Cytochrome P450 3A4): 89000 nM; IC50 (Cytochrome P450 2D6): > 100000 nM; IC50 (Cytochrome P450 1A2): > 100000 nM; Kp at 18 h [2]: 0.2; IC50 (Cytochrome P450 2C19): 62000 nM
20 | Cc1c(C(=O)O)cccc1-c1ccccc1-c1ccccc1OCc1ccccc1 | 501 | –
21 | O=C(O)c1cccc(-c2ccccc2-c2cc(Cl)ccc2OCc2ccccc2)c1 | – | CL (Liver microsomes [3]): < 0.5 mL/min/g; Ki [4]: 31.6 nM; CL (Liver microsomes [5]): <= 0.5 ml/min/g

More lines, in order of falling IC50 [1], values ahead:

Row | IC50 [1] [nM] | SMILES | other results
22 | 12.6 | O=C(O)c1cccc(-c2ccccc2-c2cc(Cl)ccc2OCc2c(F)cc(F)cc2F)n1 | –
23 | 10 | O=C(O)c1cccc(-c2ccccc2-c2cc(Cl)ccc2OCc2ccccc2)n1 | –
24 | 10 | CC(=O)Nc1cc(C(=O)O)cc(-c2ccccc2-c2cc(Cl)ccc2OCc2ccccc2)c1 | –
25 | 10 | CC(C)C(=O)Nc1cc(C(=O)O)cc(-c2ccccc2-c2cc(Cl)ccc2OCc2ccccc2)c1 | –
26 | 6.31 | CCC(=O)Nc1cc(C(=O)O)cc(-c2ccccc2-c2cc(Cl)ccc2OCc2ccccc2)c1 | –
27 | 5.01 | O=C(O)c1cccc(-c2ccccc2-c2cc(Cl)ccc2OCc2ccc(F)cc2)n1 | –
28 | 3.98 | COCC(=O)Nc1cc(C(=O)O)cc(-c2ccccc2-c2cc(Cl)ccc2OCc2ccccc2)c1 | –
29 | 3.98 | O=C(O)c1cccc(-c2ccccc2-c2cc(Cl)ccc2OCc2ccc(F)cc2F)n1 | –
30 | 2 | CCCC(=O)Nc1cc(C(=O)O)cc(-c2ccccc2-c2cc(Cl)ccc2OCc2ccccc2)c1 | –
